According to US7001770B1, “Calpain inhibitors and their applications” (priority 1998, dated 2006):
Square brackets hold non-standard residues; d marks the D form. Peptide text beside a SMILES is read from it. Nle = CCCC[C@H](N)C(=O)O

Experiments:
U87 cells = experiment: Apoptosis by annexin V-FITC staining, flow cytometry; type: cell-based
Experimental: P53 was administered to the cells by the use of the replication defective adenoviral vector ACN53 described in Wills, et al., supra. The effect of varying concentrations of rAd-p53 (from 1×10^9 to 2×10^9 rAd-p53 particles/ml of solution) was investigated in combination with CI-1 in a range of 5–20 μm. The effects of individual and combination treatment was determined in the in DLD1, RKO, HLF and SK-Hep1 cells was investigated in substantial accordance with the teaching of Examples 2 and 3 herein. […] The results are presented in graphical format in FIG. 3 of the attached drawings. In brief, the results were as follows:
The effect of an inhibitor of μ-calpains, CI-1 (N-acetyl-leu-leu-norleucinal), was investigated for its ability to enhance p53 mediated apoptosis in tumor cell lines having p53+ and p53− status listed in Table1. […] To detect a G0/G1 block, bromodeoxyuridine (BrdU) incorporation followed by flow cytometric analysis was done 17 hours post-treatment as described in Example 4 herein. […] The results of these experiments are presented in FIGS. 1 and 2 of the attached drawings. In FIG. 1, each point on the graph represents percentage annexin V positive after background percentage (DMF alone) was subtracted.
An aliquot containing approximately 1×10^6 cells of each type was placed in a T-225 flask. The effect of varying concentrations of rAd-p53 (from 1×10^7 to 2×10^9ACN53 particles/ml of solution) was investigated in combination with CI-1 in a range of 5–20 μM. […]
Apoptosis was monitored visually by observing blebbed nuclei characteristic of apoptosis, by propidium iodide staining (using propidium iodide commercially available from Molecular Probes, Inc.) followed by flow cytometric analysis to look for subgenomic populations of cells, and by labeling cells with annexin V-FITC (commercially available from Boehringer Mannheim) in substantial accordance with the instructions provided by the manufacturer, followed by flow cytometric analysis on a FACScan Flow Cytometer (commercially available from Becton Dickinson).

HLF cells = experiment: as above; type: cell-based; details: for Percent Annexin V Positive Staining: 26 hours post treatment
Experimental: P53 was administered to the cells by the use of the replication defective adenoviral vector ACN53 described in Wills, et al., supra. The effect of varying concentrations of rAd-p53 (from […] to 2×10^9 rAd-p53 particles/ml of solution) was investigated in combination with CI-1 in a range of 5–20 μm. The effects of individual and combination treatment was determined in the in DLD1, RKO, HLF and SK-Hep1 cells was investigated in substantial accordance with the teaching of Examples 2 and 3 herein. The percentage of apoptotic cells was determined at 17 hours post treatment (with the exception of U87 cells (24 hours) and HeLa cells (68 hours)) with annexin V positive staining. The results are presented in graphical format in FIG. 3 of the attached drawings. In brief, the results were as follows:
To quantitate the increased efficacy of rAd-p53 induced cell killing in tumor cell lines in response to CI-1 treatment, HLF cells were infected with increasing concentrations of rAd-p53 with or without 10 μM CI-1, and assayed for percentage apoptotic cells by annexin V-FITC staining 42 hours post-treatment in substantial accordance with the teaching of Example 3 herein. […] No increase in annexin V-FITC positive cells was detected at 1×10^5 particles/ml rAd-p53 with or without 10 μM CI-1. At 1×10^6 particles/ml rAd-p53, the percentage apoptotic cells without CI-1 was 14%, while 40% of annexin V positive cells was detected when cell were treated with 10 μM CI-1. At a concentration of 1×10^7 ACN53 particles/ml, 17% annexin V positive without and 63% with 10 μM CI-1 was detected. At 1×10^8 particles/ml, 52% were annexin V positive without and 70% positive with inhibitor treatment. At a dose of 1×10^9 particles of rAd-p53, however, the percentage annexin V positive was about the same for both 77% without and 74% with 10 μM CI-1. […] concentration of rAd-p53 was sufficient to induce approximately 50% cell death, while only a 1×10^7 particle/ml concentration rAd-p53 was needed to induce approximately the same percentage of cell death when 10 μM CI-1 as added.
The effect of an inhibitor of μ-calpains, CI-1 (N-acetyl-leu-leu-norleucinal), was investigated for its ability to enhance p53 mediated apoptosis in tumor cell lines having p53+ and p53− status listed in Table1. Each cell line was treated with 5–50 μM CI-1 for 17–26 hours. To detect a G0/G1 block, bromodeoxyuridine (BrdU) incorporation followed by flow cytometric analysis was done 17 hours post-treatment as described in Example 4 herein. […] The results of these experiments are presented in FIGS. 1 and 2 of the attached drawings. In FIG. 1, each point on the graph represents percentage annexin V positive after background percentage (DMF alone) was subtracted.
An aliquot containing approximately 1×10^6 cells of each type was placed in a T-225 flask. The effect of varying concentrations of rAd-p53 (from 1×10^7 to 2×10^9ACN53 particles/ml of solution) was investigated in combination with CI-1 in a range of 5–20 μM. In each instance, the cell line was infected with 1×10^7–1×10^9 particles/ml of cell culture with the ACN53 using the empty cassette virus (ZZCB) as a control. In each instance, the cells were exposed to the virus for a period of one hour. At the end of this time, the virus was washed off the from the cells and fresh media containing an appropriate concentration of CI-1 was added.
HLF cells were infected at increasing log concentrations of rAd-p53 ranging from 1×10^5 to 1×10^9 for one hour at which time virus was washed off and replaced with fresh media (viral infection with no treatment) or with 10 μM calpain inhibitor 1. Cells were assayed for apoptosis by annexin V-FITC staining at 24 and 42 hours post-infection.
CI-1 was obtained from Boehringer-Mannheim Biochemicals (Indianapolis, Ind.). The CI-1 containing media was prepared as follows. CI-1 was diluted in dimethylformamide (DMF) to a concentration of 33.3 μM/μl. […]

## CCCC[C@@H](C=O)NC(=O)[C@H](CC(C)C)NC(=O)[C@H](CC(C)C)NC(C)=O [CI-1, N-acetyl-leu-leu-norleucinal] (Ac-Leu-Leu-[Nle]-aldehyde)
U87 cells; 10 μM CI-1, 24 hrs
  Percentage of Cells Undergoing Apoptosis: 41%
U87 cells; 20 μM CI-1 treatment, increase from 5%
  percentage of apoptotic cells: 72%
U87 cells; calpain inhibitor 1, 10 μM for 4 days
  cells annexin V-FITC positive: ~100%
HLF cells; 10 μM CI-1, 17 hours post treatment
  Percentage of Cells Undergoing Apoptosis: 7%
HLF cells; 10 μM CI-1 alone, 42 hours post-treatment
  annexin V staining: 3%
HLF cells; CI-1 10 μM
  Percent Annexin V Positive Staining: 27%
HLF cells; CI-1 20 μM
  Percent Annexin V Positive Staining: 27%
HLF cells; CI-1 30 μM
  Percent Annexin V Positive Staining: 33%
HLF cells; CI-1 40 μM
  Percent Annexin V Positive Staining: 20%
HLF cells; CI-1 50 μM
  Percent Annexin V Positive Staining: 21%
HLF cells; treatment with 10 μM CI-1 at 42 hours
  decrease in the particles/ml of rAd-p53 needed to induce approximately 50% cell death: approximately two log decrease
